Assay [1] addresses Macrophage colony-stimulating factor 1 receptor (Homo sapiens, UniProt P07333). The assay is described as follows: Displacement of kinase tracer 236 from recombinant human His-tagged CSF1R cytoplasmic domain (538 to 910 residues) expressed in baculovirus-infected insect cells measured after 5 hrs by TR-FRET based LanthaScreen assay.
In assay [2] the target is Vascular endothelial growth factor receptor 2 (Homo sapiens, UniProt P35968). The assay is described as follows: Displacement of kinase tracer 236 from recombinant human His-tagged KDR cytoplasmic domain (789 to 1356 residues) expressed in baculovirus-infected insect cells measured after 5 hrs by TR-FRET based LanthaScreen assay. (In general: In TR-FRET formats the signal depends on donor and acceptor labels being close together.)
Vascular endothelial growth factor receptor 2, sequence (P35968 whole entry, the tested form may be a part): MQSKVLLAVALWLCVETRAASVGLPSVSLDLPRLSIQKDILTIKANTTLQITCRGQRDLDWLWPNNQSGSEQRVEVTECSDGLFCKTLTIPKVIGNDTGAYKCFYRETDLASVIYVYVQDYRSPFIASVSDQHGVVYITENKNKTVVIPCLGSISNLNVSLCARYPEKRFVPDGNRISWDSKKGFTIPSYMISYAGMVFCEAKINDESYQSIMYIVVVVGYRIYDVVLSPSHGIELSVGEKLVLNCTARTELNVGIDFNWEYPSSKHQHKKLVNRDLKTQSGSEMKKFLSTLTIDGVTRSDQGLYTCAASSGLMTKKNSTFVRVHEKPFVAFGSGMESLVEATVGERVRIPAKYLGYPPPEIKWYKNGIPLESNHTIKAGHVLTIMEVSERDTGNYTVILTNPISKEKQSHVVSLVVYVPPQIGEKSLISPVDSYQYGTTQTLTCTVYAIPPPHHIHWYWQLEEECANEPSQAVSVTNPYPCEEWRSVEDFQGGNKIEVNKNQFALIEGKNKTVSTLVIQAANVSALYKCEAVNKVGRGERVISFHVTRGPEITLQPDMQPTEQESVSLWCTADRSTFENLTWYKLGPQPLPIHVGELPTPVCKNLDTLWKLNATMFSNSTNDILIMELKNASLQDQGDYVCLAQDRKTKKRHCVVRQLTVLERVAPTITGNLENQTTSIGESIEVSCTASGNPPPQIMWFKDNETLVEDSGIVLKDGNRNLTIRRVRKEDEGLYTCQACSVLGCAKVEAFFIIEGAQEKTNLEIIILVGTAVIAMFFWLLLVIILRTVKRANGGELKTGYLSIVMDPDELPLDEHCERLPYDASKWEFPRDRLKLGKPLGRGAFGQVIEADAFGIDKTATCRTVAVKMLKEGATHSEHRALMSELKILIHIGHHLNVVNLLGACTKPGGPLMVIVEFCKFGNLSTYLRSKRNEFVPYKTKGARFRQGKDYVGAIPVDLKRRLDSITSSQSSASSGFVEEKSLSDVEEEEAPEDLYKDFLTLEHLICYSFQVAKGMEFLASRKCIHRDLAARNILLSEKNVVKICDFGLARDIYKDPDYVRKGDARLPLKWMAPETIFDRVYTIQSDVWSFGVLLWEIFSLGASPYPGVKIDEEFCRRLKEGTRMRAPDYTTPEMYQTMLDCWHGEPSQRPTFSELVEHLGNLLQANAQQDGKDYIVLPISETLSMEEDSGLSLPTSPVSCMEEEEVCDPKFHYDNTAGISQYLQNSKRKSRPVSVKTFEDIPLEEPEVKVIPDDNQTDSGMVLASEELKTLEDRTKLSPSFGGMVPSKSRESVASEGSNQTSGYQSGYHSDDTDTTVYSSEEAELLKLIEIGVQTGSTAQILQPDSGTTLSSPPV

Some results are limits rather than exact numbers.

Macrophage colony-stimulating factor 1 receptor, sequence (P07333 whole entry, the tested form may be a part): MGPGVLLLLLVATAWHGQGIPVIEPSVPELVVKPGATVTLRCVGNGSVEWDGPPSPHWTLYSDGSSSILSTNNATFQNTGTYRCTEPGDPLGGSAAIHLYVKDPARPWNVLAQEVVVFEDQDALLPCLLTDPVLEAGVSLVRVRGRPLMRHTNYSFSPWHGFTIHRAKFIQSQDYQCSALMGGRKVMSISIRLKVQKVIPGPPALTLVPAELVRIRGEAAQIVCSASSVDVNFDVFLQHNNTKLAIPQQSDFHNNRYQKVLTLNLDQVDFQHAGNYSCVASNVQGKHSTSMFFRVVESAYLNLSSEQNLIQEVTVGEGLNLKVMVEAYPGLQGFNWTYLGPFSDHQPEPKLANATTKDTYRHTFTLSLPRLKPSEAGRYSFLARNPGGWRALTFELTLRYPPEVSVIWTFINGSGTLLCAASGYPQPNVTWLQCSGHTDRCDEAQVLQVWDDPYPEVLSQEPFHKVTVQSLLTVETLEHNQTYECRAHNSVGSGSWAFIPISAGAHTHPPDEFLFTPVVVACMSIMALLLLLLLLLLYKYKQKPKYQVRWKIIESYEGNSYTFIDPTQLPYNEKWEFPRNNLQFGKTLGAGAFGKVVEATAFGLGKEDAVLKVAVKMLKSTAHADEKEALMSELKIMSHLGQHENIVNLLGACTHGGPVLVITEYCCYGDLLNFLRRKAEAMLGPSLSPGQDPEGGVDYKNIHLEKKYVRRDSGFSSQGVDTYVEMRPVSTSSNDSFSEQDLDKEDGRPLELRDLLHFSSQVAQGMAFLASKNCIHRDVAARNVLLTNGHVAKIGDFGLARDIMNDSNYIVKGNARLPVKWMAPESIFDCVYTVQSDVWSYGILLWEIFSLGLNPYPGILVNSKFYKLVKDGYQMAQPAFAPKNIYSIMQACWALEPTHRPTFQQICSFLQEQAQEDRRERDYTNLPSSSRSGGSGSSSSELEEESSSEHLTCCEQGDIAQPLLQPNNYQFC

For orientation: IC50 means the concentration at which inhibition is half-maximal. With `Nc1ncnc2c3c(n(-c4ccc(NC(=O)Cc5cc(C(F)(F)F)ccc5F)cc4)c12)CCC3`, the values for the IC50 in assay [1] and in assay [2] were < 10 nM and > 200 nM, respectively.

As to `COc1cc(-n2c3c(c4ncnc(N)c42)COC3)ccc1NC(=O)Cc1ccc(C)c(F)c1`, in assay [1], the IC50 was < 10 nM.

In the case of `Nc1ncnc2c3c(n(-c4ccc(NC(=O)Cc5cc(C(F)(F)F)ccc5F)c(C(F)(F)F)c4)c12)CCC3`, the IC50 in assay [1] was > 200 nM.

As to `Nc1ncnc2c3c(n(-c4ccc(NC(=O)Cc5ccc(Cl)cc5F)cc4)c12)CCC3`, the IC50 in assay [1] was < 10 nM; in assay [2], > 200 nM.

On to `Nc1ncnc2c3c(n(-c4ccc(NC(=O)Cc5ccnc(C(F)(F)F)c5)cc4)c12)CCC3`, for which the IC50 in assay [1] is < 10 nM; in assay [2], > 200 nM.

As for `COc1ccc(CC(=O)Nc2ccc(-n3c4c(c5ncnc(N)c53)CCC4)cc2OC)c(F)c1`, the values for the IC50 in assay [1] and in assay [2] were < 10 nM and > 200 nM, respectively.

Regarding `COc1cc(-n2c3c(c4ncnc(N)c42)COC3)ccc1NC(=O)Cn1cc(C(C)(C)C)cn1`, the IC50 in assay [1] was 10 to 200 nM.

For the compound `COc1cc(-n2c3c(c4ncnc(N)c42)CCC3)ccc1CC(=O)Nc1ccc(C(C)(C)O)nc1`, the concentration for half-maximal inhibition (IC50) in assay [1] was < 10 nM.

In the case of `COc1ncc(NC(=O)Cc2ccc(-n3c4c(c5ncnc(N)c53)CCC4)cc2)cc1F`, the IC50 in assay [1] was < 10 nM.

Regarding `COc1cc(-n2c3c(c4ncnc(N)c42)CCC3)ccc1CC(=O)Nc1cnn(C)c1`, in assay [1], the IC50 was > 200 nM.

Regarding `COc1cc(-n2c3c(c4ncnc(N)c42)CCC3)ccc1CC(=O)Nc1ccc(C2(O)COC2)cc1`, in assay [1], the 50% inhibitory concentration (IC50) was 10 to 200 nM.

Regarding `Nc1ncnc2c3c(n(-c4ccc(NC(=O)Cc5ccc(F)cc5)cc4)c12)CCC3`, the IC50 in assay [1] is < 10 nM; in assay [2], > 200 nM.

For the compound `CC(C)(C)c1ccn(CC(=O)Nc2ccc(-n3c4c(c5ncnc(N)c53)COC4)cc2)n1`, the IC50 in assay [1] lay within 10 to 200 nM.

With `COc1cc(-n2c3c(c4ncnc(N)c42)CCC3)ccc1CC(=O)Nc1ccc2c(c1)COC2(C)C`, the IC50 in assay [1] is < 10 nM.

For the compound `Nc1ncnc2c3c(n(-c4ccc(NC(=O)Cc5cnn(C(F)F)c5)cc4)c12)CCC3`, the IC50 in assay [1] fell in the range of 10 to 200 nM.

As to `COc1cc(CC(=O)Nc2ccc(-n3c4c(c5ncnc(N)c53)CCC4)cc2)ccc1F`, the IC50 in assay [1] was 10 to 200 nM; in assay [2], > 200 nM.

With `Nc1ncnc2c3c(n(-c4ccc(NC(=O)Cc5cccc(OC(F)(F)F)c5)cc4)c12)CCC3`, the IC50 in assay [1] was < 10 nM; in assay [2] it was > 200 nM.

`Nc1ncnc2c3c(n(-c4ccc(NC(=O)Cc5ccn(C(F)F)n5)cc4)c12)CCC3`: in assay [1], the IC50 was 10 to 200 nM.

Regarding `COc1cc(-n2c3c(c4ncnc(N)c42)CCC3)ccc1NC(=O)Cc1coc(C(C)C)n1`, the IC50 in assay [1] is < 10 nM.

For the compound `COc1cccc(CC(=O)Nc2ccc(-n3c4c(c5ncnc(N)c53)CCC4)cc2)c1`, the IC50 is < 10 nM in assay [1] and > 200 nM in assay [2].

For `COc1cc(-n2c3c(c4ncnc(N)c42)CCC3)ccc1CC(=O)Nc1ccc(C(C)(C)O)cn1`, in assay [1], the IC50 was 10 to 200 nM.

Regarding `Nc1ncnc2c3c(n(-c4ccc(NC(=O)Cc5cccc(Cl)c5F)cc4)c12)CCC3`, the IC50 in assay [1] was < 10 nM; in assay [2], > 200 nM.

On to `COc1cc(-n2c3c(c4ncnc(N)c42)CCC3)ccc1CC(=O)Nc1cnc(C(F)(F)F)nc1`, for which the IC50 in assay [1] is 10 to 200 nM.

Turning to `COc1cc(CC(=O)Nc2ccc(-n3c4c(c5ncnc(N)c53)CCC4)cc2)cc(OC)c1`, the IC50 in assay [1] and in assay [2] was > 200 nM each time.

For `Nc1ncnc2c3c(n(-c4ccc(NC(=O)Cc5ccc(Cl)cc5)cc4)c12)CCC3`, the IC50 in assay [1] was < 10 nM; in assay [2], > 200 nM.

Turning to `Nc1ncnc2c3c(n(-c4ccc(NC(=O)Cc5cc(Cl)ccc5F)cc4)c12)CCC3`, the IC50 was < 10 nM in assay [1] and > 200 nM in assay [2].

On to `Nc1ncnc2c3c(n(-c4ccc(NC(=O)Cc5cccc(O)c5)cc4)c12)CCC3`, for which the IC50 in assay [2] is > 200 nM.

For `COc1cc(-n2c3c(c4ncnc(N)c42)CCC3)ccc1CC(=O)Nc1nc(C(F)(F)F)cs1`, the IC50 in assay [1] was < 10 nM.

For the compound `COc1cc(-n2c3c(c4ncnc(N)c42)COC3)ccc1NC(=O)Cn1ccc(C(C)(C)C)n1`, the concentration for half-maximal inhibition (IC50) in assay [1] lay in the range of 10 to 200 nM.

On to `COc1cc(-n2c3c(c4ncnc(N)c42)CCC3)ccc1NC(=O)Cc1cc(C(F)(F)F)cnn1`, for which the IC50 in assay [1] fell in the range of 10 to 200 nM.

As to `COc1cc(-n2c3c(c4ncnc(N)c42)COC3)ccc1NC(=O)Cn1ccc(C(C)C)n1`, the half-maximal inhibitory concentration (IC50) in assay [1] is < 10 nM.

`Nc1ncnc2c3c(n(-c4ccc(NC(=O)Cc5ccn(C(F)F)n5)cc4)c12)COC3`: in assay [1], the IC50 was > 200 nM.

Regarding `COc1cc(-n2c3c(c4ncnc(N)c42)CCC3)ccc1NC(=O)Cc1ccc(C(C)(C)C)cc1`, the IC50 in assay [1] was 10 to 200 nM.

Turning to `COc1cc(-n2c3c(c4ncnc(N)c42)COC3)ccc1CC(=O)Nc1ccc(C(F)(F)F)nc1`, the IC50 in assay [1] was < 10 nM.

As for `CC(C)c1ccn(CC(=O)Nc2ccc(-n3c4c(c5ncnc(N)c53)CCC4)cc2)n1`, the IC50 in assay [1] is < 10 nM.

With `COc1cc(-n2c3c(c4ncnc(N)c42)CCC3)ccc1CC(=O)Nc1cc(C(F)(F)F)cnn1`, the IC50 in assay [1] was < 10 nM.

As for `COc1cc(-n2c3c(c4ncnc(N)c42)CCC3)ccc1NC(=O)Cc1ccc(C2(O)COC2)cc1`, in assay [1], the IC50 was < 10 nM.

Consider `Nc1ncnc2c3c(n(-c4ccc(NC(=O)Cc5cccc(OC(F)F)c5)cc4)c12)CCC3`, for which the half-inhibitory concentration (IC50) in assay [1] was 10 to 200 nM; in assay [2], > 200 nM.

With `Nc1ncnc2c3c(n(-c4ccc(NC(=O)Cc5cc(C(F)(F)F)ccn5)cc4)c12)CCC3`, the IC50 was 10 to 200 nM in assay [1] and > 200 nM in assay [2].

As for `COc1cc(-n2c3c(c4ncnc(N)c42)CCC3)ccc1CC(=O)Nc1ccn(C)n1`, in assay [1], the IC50 is > 200 nM.

Consider `COc1cc(NC(=O)Cc2ccc(-n3c4c(c5ncnc(N)c53)CCC4)cc2OC)cc(C(F)(F)F)c1`, for which the half-inhibitory concentration (IC50) in assay [1] is < 10 nM.

Take `COc1cc(-n2c3c(c4ncnc(N)c42)COC3)ccc1CC(=O)Nc1ccccc1`: the IC50 in assay [1] was > 200 nM.

As to `Nc1ncnc2c3c(n(-c4ccc(NC(=O)Cc5ccc(OC(F)(F)F)cc5)cc4)c12)CCC3`, the IC50 in assay [2] was > 200 nM.

`Nc1ncnc2c3c(n(-c4ccc(NC(=O)Cc5ccc(C(F)(F)F)nc5)cc4)c12)CCC3`: the values for the IC50 in assay [1] and in assay [2] were < 10 nM and > 200 nM, respectively.

With `Nc1ncnc2c3c(n(-c4ccc(NC(=O)Cc5ccccc5)cc4)c12)CCC3`, the figures for the IC50 in assay [1] and in assay [2] were 10 to 200 nM and > 200 nM, respectively.

As for `COc1cc(F)c(CC(=O)Nc2ccc(-n3c4c(c5ncnc(N)c53)CCC4)cc2)c(F)c1`, the IC50 was < 10 nM in assay [1] and 10 to 200 nM in assay [2].

Turning to `COc1cc(-n2c3c(c4ncnc(N)c42)COC3)ccc1NC(=O)Cc1cnn(C)c1C(F)(F)F`, the IC50 in assay [1] is > 200 nM.

With `COc1ccc(CC(=O)Nc2ccc(-n3c4c(c5ncnc(N)c53)CCC4)cc2)cc1`, the IC50 in assay [1] is < 10 nM; in assay [2] it was > 200 nM.

As to `COc1cc(-n2c3c(c4ncnc(N)c42)CCC3)ccc1CC(=O)Nc1ccc2nonc2c1`, the IC50 in assay [1] was < 10 nM.

Take `COc1ccc(CC(=O)Nc2ccc(-n3c4c(c5ncnc(N)c53)CCC4)cc2)cn1`: the IC50 in assay [1] was < 10 nM; in assay [2], > 200 nM.

Consider `COc1ccc(CC(=O)Nc2ccc(-n3c4c(c5ncnc(N)c53)CCC4)cc2)cc1F`, for which the IC50 is < 10 nM in assay [1] and > 200 nM in assay [2].

`COc1ccc(CC(=O)Nc2ccc(-n3c4c(c5ncnc(N)c53)CCC4)cc2)c(F)c1`: the IC50 in assay [1] is < 10 nM; in assay [2], > 200 nM.

Turning to `CC(C)(C)c1cnn(CC(=O)Nc2ccc(-n3c4c(c5ncnc(N)c53)COC4)cc2)c1`, the IC50 in assay [1] was < 10 nM.

Turning to `Nc1ncnc2c3c(n(-c4ccc(NC(=O)Cc5nnc(C(F)(F)F)o5)cc4)c12)CCC3`, the half-maximal inhibitory concentration (IC50) in assay [1] was > 200 nM.

Take `Nc1ncnc2c3c(n(-c4ccc(NC(=O)Cc5ccc(Cl)c(Cl)c5)cc4)c12)CCC3`: the IC50 is < 10 nM in assay [1] and > 200 nM in assay [2].

Take `COc1cc(-n2c3c(c4ncnc(N)c42)CCC3)ccc1CC(=O)Nc1ccnn1C`: the IC50 in assay [1] is > 200 nM.

Consider `COc1cc(-n2c3c(c4ncnc(N)c42)CCC3)ccc1CC(=O)Nc1cnn(C(F)F)c1`, for which the IC50 in assay [1] was in the range of 10 to 200 nM.

Regarding `Nc1ncnc2c3c(n(-c4ccc(NC(=O)Cn5ccc(C6CC6)n5)cc4)c12)CCC3`, the IC50 in assay [1] was < 10 nM.

On to `COc1cc(-n2c3c(c4ncnc(N)c42)CCC3)ccc1NC(=O)Cn1ccc(C2CC2)n1`, for which, in assay [1], the IC50 was < 10 nM.

On to `COc1cc(-n2c3c(c4ncnc(N)c42)COC3)ccc1NC(=O)Cc1csc(C(C)C)n1`, for which, in assay [1], the IC50 is 10 to 200 nM.

Consider `COc1cc(-n2c3c(c4ncnc(N)c42)CCC3)ccc1NC(=O)Cc1nnn(C(C)(C)C)n1`, for which the IC50 in assay [1] was < 10 nM.

Turning to `COc1cc(-n2c3c(c4ncnc(N)c42)CCC3)ccc1CC(=O)Nc1cnc(OC)c(F)c1`, the IC50 in assay [1] was < 10 nM.

`COc1cc(-n2c3c(c4ncnc(N)c42)CCC3)ccc1NC(=O)Cc1csc(C(C)C)n1`: the IC50 in assay [1] is < 10 nM.

Regarding `Nc1ncnc2c3c(n(-c4ccc(NC(=O)Cc5ccc(F)cc5Br)cc4)c12)CCC3`, the IC50 in assay [1] is < 10 nM; in assay [2], > 200 nM.

As for `Nc1ncnc2c3c(n(-c4ccc(NC(=O)Cc5cccc(Cl)c5)cc4)c12)CCC3`, the IC50 in assay [1] was < 10 nM; in assay [2], > 200 nM.

With `COc1ccc(NC(=O)Cc2ccc(-n3c4c(c5ncnc(N)c53)CCC4)cc2OC)nn1`, the IC50 in assay [1] was < 10 nM.

With `COc1cc(-n2c3c(c4ncnc(N)c42)CCC3)ccc1CC(=O)Nc1ccc(C(C)(C)OC)nc1`, the IC50 in assay [1] was < 10 nM.

As to `COc1cc(-n2c3c(c4ncnc(N)c42)CCC3)ccc1NC(=O)Cn1ccc(C(C)(C)C)n1`, in assay [1], the IC50 is < 10 nM.

In the case of `CC(C)(C)c1cnn(CC(=O)Nc2ccc(-n3c4c(c5ncnc(N)c53)CCC4)cc2)c1`, in assay [1], the IC50 was < 10 nM.

On to `COc1cc(-n2c3c(c4ncnc(N)c42)CCC3)ccc1CC(=O)Nc1ccc(C(C)(C)C)cc1`, for which, in assay [1], the IC50 is < 10 nM.

For `COc1cc(-n2c3c(c4ncnc(N)c42)CCC3)ccc1NC(=O)Cc1ccn(C(F)F)n1`, the IC50 in assay [1] was < 10 nM.

On to `CNC(=O)c1cccc(NC(=O)Cc2ccc(-n3c4c(c5ncnc(N)c53)CCC4)cc2OC)c1`, for which the IC50 in assay [1] was 10 to 200 nM.

As to `COc1cc(-n2c3c(c4ncnc(N)c42)COC3)ccc1NC(=O)Cc1csc(C(C)(C)C)n1`, in assay [1], the IC50 was in the range of 10 to 200 nM.

The record behind these values is ChEMBL document CHEMBL4418299, “Compounds useful as csf1 modulators” (2016).
